Test results from patent US20120259123A1, “AMINOPYRIDINE COMPOUND” (UBE INDUSTRIES, LTD., priority 2009, published 2012).
Where a name gives a salt, the structure may show the parent alone. Read-outs that look alike come from different tables or passages of the source.

What was measured:
[1] = biological target: T1, human EP2 receptor (Homo sapiens, UniProt P43116); assay: Measurement of EP2 receptor binding affinity ([3H]PGE2 displacement)
T1 construct: purchased Euroscreen S.A. ES-562-M; host or cells: HEK293 cells
Procedure: (§1) Measurement of EP2 receptor binding affinity was carried out according to the method of Abramovitz et al. (Biochimica et Biophysica Acta, 1483, 285 (2000)). […] The membrane fraction was recovered on glass fiber filter paper (GF/B, available from Whatman PLC) using a cell harvester […], available from Brandel Inc.), and after washing with a buffer solution (10 mM MES-KOH (pH 6.0), 10 mM MgCl2), radioactivity was measured with a liquid scintillation analyzer (2000CA, available from Packard). […] The dissociation constant (Kd value) was calculated by Scatchard analysis.

[2] = biological target: T1, human EP2 receptor; assay: Measurement of EP2 agonist activity (cAMP amount in cells); type: cell-based; settings: HEK 293 cells expressing human EP2 receptor, cAMP increase, 30 minutes
Procedure: Measurement of EP2 agonist activity was carried out according to the method of Wilson et al. (European Journal of Pharmacology, 501, 49 (2004)). […] On the next day, the medium was replaced with serum-free MEM medium containing 3-isobutyl-1-methylxanthine (final concentration: 500 μM) and after culturing for 30 minutes, a test compound dissolved in dimethylsulfoxide was added and the medium was allowed to stand in a carbon dioxide gas incubator. After 30 minutes, an amount of cAMP in the cells was measured with a cAMP Biotrak EIA System kit (available from GE Healthcare Bioscience).

[3] = biological target: T2, human EP1 receptor (Homo sapiens, UniProt P34995); assay: Measurement of EP1 receptor binding affinity ([3H]PGE2 displacement)
T2 sequence (P34995 1-402): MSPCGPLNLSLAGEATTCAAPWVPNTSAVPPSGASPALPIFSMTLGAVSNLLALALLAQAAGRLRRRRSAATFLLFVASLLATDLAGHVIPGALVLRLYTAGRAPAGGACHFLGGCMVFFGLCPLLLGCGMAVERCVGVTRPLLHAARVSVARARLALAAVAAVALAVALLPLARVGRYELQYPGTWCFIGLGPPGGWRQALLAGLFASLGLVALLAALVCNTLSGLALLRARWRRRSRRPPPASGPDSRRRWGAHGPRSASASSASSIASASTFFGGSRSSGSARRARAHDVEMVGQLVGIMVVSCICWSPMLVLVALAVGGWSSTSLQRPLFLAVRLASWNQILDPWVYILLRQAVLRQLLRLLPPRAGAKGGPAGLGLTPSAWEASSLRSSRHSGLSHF
Procedure: as §1, with “EP1” for “EP2”, “PLC) pretreated with 0.3% polyethyleneimine by” for “PLC)”

[4] = biological target: T3, human EP3 receptor (Homo sapiens, UniProt P43115); assay: Measurement of EP3 receptor binding affinity ([3H]PGE2 displacement)
T3 sequence (P43115 1-390): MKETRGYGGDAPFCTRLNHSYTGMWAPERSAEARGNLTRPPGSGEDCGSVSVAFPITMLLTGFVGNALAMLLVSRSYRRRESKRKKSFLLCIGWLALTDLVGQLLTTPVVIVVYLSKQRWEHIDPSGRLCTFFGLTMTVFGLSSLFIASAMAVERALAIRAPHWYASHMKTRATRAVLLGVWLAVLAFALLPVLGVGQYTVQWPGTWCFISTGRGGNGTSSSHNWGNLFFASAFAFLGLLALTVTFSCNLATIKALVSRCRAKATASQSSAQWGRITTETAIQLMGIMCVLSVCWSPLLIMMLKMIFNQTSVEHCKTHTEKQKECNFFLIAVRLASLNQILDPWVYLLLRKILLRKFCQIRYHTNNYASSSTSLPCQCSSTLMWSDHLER
Procedure: Measurement of EP3 receptor binding affinity was carried out according to the method described in the data sheet of Millipore Corp. […] The membrane fraction was recovered on glass fiber filter paper (GF/B, available from Whatman PLC) pretreated with 0.3% polyethyleneimine by using a cell harvester […], available from Brandel Inc.), and after washing with a buffer solution (50 mM Tris-HCl (pH 7.4)), radioactivity was measured with a liquid scintillation analyzer (2000CA, available from Packard). […] The dissociation constant (Kd value) was calculated by Scatchard analysis.

[5] = biological target: human EP4 receptor (Homo sapiens, UniProt P35408); assay: Measurement of EP4 receptor binding affinity ([3H]PGE2 displacement)
Procedure: With regard to EP1, EP3 and EP4 receptors, measurements of the receptor binding affinity were carried out in the same manner as in Test example 1 according to the following methods.
The membrane fraction was recovered on glass fiber filter paper (GF/B, available from Whatman PLC) pretreated with 0.3% polyethyleneimine by using a cell harvester (M30R, available from Brandel Inc.), and after washing with a buffer solution (50 mM HEPES-NaOH (pH 7.4), 500 mM NaCl, 0.1% BSA), radioactivity was measured with a liquid scintillation analyzer (2000CA, available from Packard). […] The dissociation constant (Kd value) was calculated by Scatchard analysis.

[6] = read-out: Ki value of EP2 receptor binding affinity
[7] = membrane fraction of Chem-1 cells expressing human EP1 receptor, [3H]PGE2 10 nM

T1 sequence (P43116 whole entry): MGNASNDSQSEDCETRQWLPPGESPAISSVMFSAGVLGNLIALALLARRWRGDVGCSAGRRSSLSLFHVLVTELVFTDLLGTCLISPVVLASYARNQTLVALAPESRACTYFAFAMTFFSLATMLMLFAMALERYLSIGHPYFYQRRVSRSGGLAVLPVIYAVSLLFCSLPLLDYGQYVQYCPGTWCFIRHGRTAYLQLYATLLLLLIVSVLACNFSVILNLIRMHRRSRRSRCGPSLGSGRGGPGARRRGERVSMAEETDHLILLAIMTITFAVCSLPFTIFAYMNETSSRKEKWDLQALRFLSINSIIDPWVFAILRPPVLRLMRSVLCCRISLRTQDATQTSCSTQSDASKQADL
human EP4 receptor, sequence (P35408 whole entry): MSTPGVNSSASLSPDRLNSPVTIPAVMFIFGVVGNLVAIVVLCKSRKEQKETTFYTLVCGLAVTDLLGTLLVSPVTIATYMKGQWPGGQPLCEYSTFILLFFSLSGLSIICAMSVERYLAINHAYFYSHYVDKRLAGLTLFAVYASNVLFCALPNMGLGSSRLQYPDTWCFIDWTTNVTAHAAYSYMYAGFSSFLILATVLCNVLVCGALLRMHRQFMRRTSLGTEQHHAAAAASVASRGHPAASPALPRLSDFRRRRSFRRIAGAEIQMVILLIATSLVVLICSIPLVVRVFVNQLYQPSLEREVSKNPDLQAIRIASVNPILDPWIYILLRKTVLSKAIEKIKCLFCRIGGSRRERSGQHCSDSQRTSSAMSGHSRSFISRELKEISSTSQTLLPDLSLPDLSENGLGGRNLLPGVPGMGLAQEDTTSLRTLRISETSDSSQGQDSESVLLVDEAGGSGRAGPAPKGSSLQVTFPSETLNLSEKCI

**Q.** How did the Ki [1, 6] turn out when `CCCCC(C)(C)c1ccc(CN(Cc2cccc(NCC(=O)O)n2)S(=O)(=O)c2ccccn2)s1` [Example 2, (6-{[5-(1,1-Dimethylpentyl)thiophen-2-ylmethyl](pyridin-2-ylsulfonyl)aminomethyl}pyridin-2-ylamino)acetic acid] was run?
**A.** The Ki was 1.9 nM.

**Q.** What about the EC50 [2] of the same compound?
**A.** The EC50 was 3.6 nM.

**Q.** What about the Ki [3] of the same compound?
**A.** The Ki was > 3000 nM.

**Q.** What about the Ki [4] of the same compound?
**A.** Its Ki is > 3000 nM.

**Q.** What about the Ki [5] of the same compound?
**A.** The Ki was > 3000 nM.

**Q.** What does the source list for `CCCCC(C)(C)c1ccc(CN(Cc2cccc(NCC(=O)O)n2)S(=O)(=O)c2ccc(F)cc2)cc1` [Example 47, (6-{(4-Fluorobenzenesulfonyl)[4-(1,1-dimethylpentyl)benzyl]aminomethyl}pyridin-2-ylamino)acetic acid]?
**A.** Ki [1, 6]: 3.2 nM; EC50 [2]: 7.1 nM; Ki [3]: > 3000 nM; Ki [4]: > 3000 nM; Ki [5]: > 3000 nM

**Q.** For `CCCCC[C@H](O)/C=C/[C@H]1[C@H](O)CC(=O)[C@@H]1C/C=C\CCCC(=O)O` [PGE2, Prostaglandin E2, reference compound], which Ki [3, 7] is on record?
**A.** The Ki was 9 nM.

**Q.** `CCCCC(C)(C)c1ccc(CN(Cc2cccc(NCC(=O)O)n2)S(=O)(=O)c2ccccn2)cc1` [Example 37, (6-{[4-(1,1-Dimethylpentyl)benzyl](pyridin-2-ylsulfonyl)aminomethyl}pyridin-2-ylamino)acetic acid] was tested. Which Ki [1, 6] did it give?
**A.** Its Ki is 1.8 nM.

**Q.** What about the EC50 [2] of the same compound?
**A.** The EC50 was 6.1 nM.

**Q.** What about the Ki [3] of the same compound?
**A.** Its Ki is > 3000 nM.

**Q.** And the Ki [4]?
**A.** The Ki was > 3000 nM.

**Q.** What about the Ki [5] of the same compound?
**A.** Its Ki is > 3000 nM.

**Q.** Which Ki [1, 6] does the source give for `CCCOCC1(c2ccc(CN(Cc3cccc(NCC(=O)O)n3)S(=O)(=O)c3ccccn3)cc2)CC1` [Example 18, (6-{[4-(1-Propoxymethylcyclopropyl)benzyl](pyridin-2-ylsulfonyl)aminomethyl}pyridin-2-ylamino)acetic acid] here?
**A.** Its Ki is 5.5 nM.

**Q.** And the EC50 [2]?
**A.** The EC50 was 3 nM.

**Q.** What about the Ki [3] of the same compound?
**A.** The Ki was > 3000 nM.

**Q.** And the Ki [4]?
**A.** Its Ki is > 3000 nM.

**Q.** What about the Ki [5] of the same compound?
**A.** Its Ki is > 3000 nM.

**Q.** What does the source list for `CC(C)(CCCC(F)(F)F)c1ccc(CN(Cc2cccc(NCC(=O)O)n2)S(=O)(=O)c2ccccn2)cc1` [Example 53, (6-{[4-(5,5,5-Trifluoro-1,1-dimethylpentyl)benzyl](pyridin-2-ylsulfonyl)aminomethyl}pyridin-2-ylamino)acetic acid]?
**A.** Ki [1, 6]: 8.7 nM; EC50 [2]: 4.1 nM; Ki [3]: > 3000 nM; Ki [4]: > 3000 nM; Ki [5]: > 3000 nM

**Q.** With `CCCCC1(c2ccc(CN(Cc3cccc(NCC(=O)O)n3)S(=O)(=O)c3ccccn3)cc2)CC1` [Example 9, 6-{[4-(1-Butylcyclopropyl)benzyl](pyridin-2-ylsulfonyl)aminomethyl}pyridin-2-ylamino)acetic acid hydrochloride] as the compound, how does the Ki ([1]; membrane fraction of HEK293 cells expressing human EP2 receptor, [3H]PGE2 10 nM, Table 2, read-out: Ki value of EP2 receptor binding affinity) read?
**A.** The Ki was 2.9 nM.

**Q.** And the Ki ([1]; membrane fraction of HEK293 cells expressing human EP2 receptor, Table 4, read-out: EP2 receptor binding affinity Ki value)?
**A.** Its Ki is 2.9 nM.

**Q.** What about the EC50 [2] of the same compound?
**A.** The EC50 was 4.9 nM.

**Q.** What about the Ki [3, 7] of the same compound?
**A.** The Ki was > 3000 nM.

**Q.** And the Ki ([4]; membrane fraction of Chem-1 cells expressing human EP3 receptor, [3H]PGE2 2 nM)?
**A.** The Ki was > 3000 nM.

**Q.** What about the Ki ([5]; membrane fraction of Chem-1 cells expressing human EP4 receptor, [3H]PGE2 1 nM) of the same compound?
**A.** The Ki was > 3000 nM.
